From patent US20210254272A1, “TEXTILES HAVING ANTIMICROBIAL PROPERTIES” (Livinguard AG, priority 2015, published 2021)

Tested on: E. coli (ATCC 25922)
Assay: AATCC Test Method 100-2012 antibacterial activity of the treated textile, after 25 washes and 12 abrasion cycles, contact time 60 minutes
Assay type: cell-based
Settings: for Log reduction of antimicrobial performance: 1% o.w.f; for Log reduction of antimicrobial performance in 100 GSM Polyester fabric / Log reduction of antimicrobial performance in 100 GSM cotton fabric / Log reduction of antimicrobial performance in 300 GSM Polyester fabric / Log reduction of antimicrobial performance in 300 GSM cotton fabric / Performance Test-Log reduction of antimicrobial performance: 2 min; for Performance Test-Log reduction of antimicrobial performance: pad process, single agent 5 gm/lit
Experimental: The antibacterial activity of the textile was tested in accordance with AATCC Test Method 100-2012. Prior to the test, the fabric was cut into coupons of 2×4 inches and washed separately 25 times, and exposed to 12 abrasion cycles, as per US EPA protocol 90072PA4 (described further below). The tests were made against E. coli (ATCC 25922). Contact time was 60 minutes, after inoculating with 10^8 CFU per coupon.

[1] = exhaust 80° C., 60 min, curing 180° C., dosage 0.1% o.w.f
[2] = exhaust 80° C., 60 min, curing 180° C., dosage 0.2% o.w.f
[3] = exhaust 80° C., 60 min, curing 180° C., dosage 0.5% o.w.f
[4] = exhaust 80° C., 60 min, curing 180° C., dosage 0.8% o.w.f
[5] = exhaust 80° C., 60 min, curing 180° C., dosage 1.0% o.w.f

SMILES: CCCCCCCCCCCCCCCCCC[N+](C)(C)CCC[Si](OC)(OC)OC [Organosilane, dimethyloctadecyl[3-(trimethoxysilyl)propyl] ammonium chloride]
- Log reduction of antimicrobial performance of each active ingredient (exhaust 60° C., solution dosage 1% o.w.f, process time 60 min): 1.5 Log
- Log reduction of antimicrobial performance of each active ingredient (exhaust 60° C., solution dosage 1% o.w.f, process time 90 min): 1.7 Log
- Log reduction of antimicrobial performance of each active ingredient (exhaust 60° C., solution dosage 1% o.w.f, process time 120 min): 1.8 Log
- Log reduction of antimicrobial performance of each active ingredient (exhaust 60° C., solution dosage 1% o.w.f, process time 180 min): 1.8 Log
- Log reduction of antimicrobial performance of each active ingredient (exhaust 60° C., solution dosage 1% o.w.f, process time 240 min): 1.73 Log
- Log reduction of antimicrobial performance (exhaust 80° C., 60 min, curing 170° C., curing dwell time 0.5 min): 0.3 Log
- Log reduction of antimicrobial performance (exhaust 80° C., 60 min, curing 170° C., curing dwell time 1.0 min): 0.5 Log
- Log reduction of antimicrobial performance (exhaust 80° C., 60 min, curing 170° C., curing dwell time 1.5 min): 0.6 Log
- Log reduction of antimicrobial performance (exhaust 80° C., 60 min, curing 170° C., curing dwell time 2.0 min): 1.2 Log
- Log reduction of antimicrobial performance (exhaust 80° C., 60 min, curing 170° C., curing dwell time 2.5 min): 1.2 Log
- Log reduction of antimicrobial performance (exhaust 80° C., 60 min, curing 170° C., curing dwell time 3.0 min): 0.75 Log
- Log reduction of antimicrobial performance (exhaust 80° C., 60 min, curing 180° C., curing dwell time 0.5 min): 1.5 Log
- Log reduction of antimicrobial performance (exhaust 80° C., 60 min, curing 180° C., curing dwell time 1.0 min): 1.7 Log
- Log reduction of antimicrobial performance (exhaust 80° C., 60 min, curing 180° C., curing dwell time 1.5 min): 1.8 Log
- Log reduction of antimicrobial performance (exhaust 80° C., 60 min, curing 180° C., curing dwell time 2.0 min): 3.9 Log
- Log reduction of antimicrobial performance (exhaust 80° C., 60 min, curing 180° C., curing dwell time 2.5 min): 3.8 Log
- Log reduction of antimicrobial performance (exhaust 80° C., 60 min, curing 180° C., curing dwell time 3.0 min): 3.7 Log
- Log reduction of antimicrobial performance (exhaust 80° C., 60 min, curing 190° C., curing dwell time 0.5 min): 0.6 Log
- Log reduction of antimicrobial performance (exhaust 80° C., 60 min, curing 190° C., curing dwell time 1.0 min): 1.1 Log
- Log reduction of antimicrobial performance (exhaust 80° C., 60 min, curing 190° C., curing dwell time 1.5 min): 1.5 Log
- Log reduction of antimicrobial performance (exhaust 80° C., 60 min, curing 190° C., curing dwell time 2.0 min): 2.55 Log
- Log reduction of antimicrobial performance (exhaust 80° C., 60 min, curing 190° C., curing dwell time 2.5 min): 2.46 Log
- Log reduction of antimicrobial performance (exhaust 80° C., 60 min, curing 190° C., curing dwell time 3.0 min): 1.2 Log
- Log reduction of antimicrobial performance (exhaust 80° C., 60 min, curing temperature 100 ° C.): 0.17 Log
- Log reduction of antimicrobial performance (exhaust 80° C., 60 min, curing temperature 120 ° C.): 0.56 Log
- Log reduction of antimicrobial performance (exhaust 80° C., 60 min, curing temperature 140 ° C.): 0.97 Log
- Log reduction of antimicrobial performance (exhaust 80° C., 60 min, curing temperature 160 ° C.): 1.11 Log
- Log reduction of antimicrobial performance (exhaust 80° C., 60 min, curing temperature 165 ° C.): 1.16 Log
- Log reduction of antimicrobial performance (exhaust 80° C., 60 min, curing temperature 170 ° C.): 1.26 Log
- Log reduction of antimicrobial performance (exhaust 80° C., 60 min, curing temperature 175 ° C.): 2.16 Log
- Log reduction of antimicrobial performance (exhaust 80° C., 60 min, curing temperature 180 ° C.): 2.56 Log
- Log reduction of antimicrobial performance (exhaust 80° C., 60 min, curing temperature 185 ° C.): 2.59 Log
- Log reduction of antimicrobial performance (exhaust 80° C., 60 min, curing temperature 190 ° C.): 2.61 Log
- Log reduction of antimicrobial performance (exhaust 80° C., 60 min, curing temperature 195 ° C.): 2.63 Log
- Log reduction of antimicrobial performance in 100 GSM Polyester fabric [1]: 0.73 Log
- Log reduction of antimicrobial performance in 100 GSM cotton fabric [1]: 0.81 Log
- Log reduction of antimicrobial performance in 300 GSM Polyester fabric [1]: 0.75 Log
- Log reduction of antimicrobial performance in 300 GSM cotton fabric [1]: 0.82 Log
- Log reduction of antimicrobial performance in 100 GSM Polyester fabric [2]: 1.67 Log
- Log reduction of antimicrobial performance in 100 GSM cotton fabric [2]: 1.67 Log
- Log reduction of antimicrobial performance in 300 GSM Polyester fabric [2]: 1.65 Log
- Log reduction of antimicrobial performance in 300 GSM cotton fabric [2]: 1.68 Log
- Log reduction of antimicrobial performance in 100 GSM Polyester fabric [3]: 1.79 Log
- Log reduction of antimicrobial performance in 100 GSM cotton fabric [3]: 1.83 Log
- Log reduction of antimicrobial performance in 300 GSM Polyester fabric [3]: 1.80 Log
- Log reduction of antimicrobial performance in 300 GSM cotton fabric [3]: 1.83 Log
- Log reduction of antimicrobial performance in 100 GSM Polyester fabric [4]: 2.19 Log
- Log reduction of antimicrobial performance in 100 GSM cotton fabric [4]: 2.17 Log
- Log reduction of antimicrobial performance in 300 GSM Polyester fabric [4]: 2.20 Log
- Log reduction of antimicrobial performance in 300 GSM cotton fabric [4]: 2.18 Log
- Log reduction of antimicrobial performance in 100 GSM Polyester fabric [5]: 2.58 Log
- Log reduction of antimicrobial performance in 100 GSM cotton fabric [5]: 2.56 Log
- Log reduction of antimicrobial performance in 300 GSM Polyester fabric [5]: 2.58 Log
- Log reduction of antimicrobial performance in 300 GSM cotton fabric [5]: 2.57 Log
- Log reduction of antimicrobial performance of each active ingredient (exhaust 80° C., 60 min, dosage 1% o.w.f (test up to 5% o.w.f)): 2.38 Log
- Log reduction of antimicrobial performance of each active ingredient (exhaust 80° C., 60 min, dosage 2% o.w.f): 2.38 Log
- Log reduction of antimicrobial performance of each active ingredient (exhaust 80° C., 60 min, dosage 3% o.w.f): 2.41 Log
- Log reduction of antimicrobial performance of each active ingredient (exhaust 80° C., 60 min, dosage 4% o.w.f): 2.42 Log
- Log reduction of antimicrobial performance of each active ingredient (exhaust 80° C., 60 min, dosage 5% o.w.f): 2.43 Log
- Log reduction of antimicrobial performance of each active ingredient (exhaust 80 ° C., solution dosage 1% o.w.f, process time 10 min): 0.78 Log
- Log reduction of antimicrobial performance of each active ingredient (exhaust 80 ° C., solution dosage 1% o.w.f, process time 20 min): 1.11 Log
- Log reduction of antimicrobial performance of each active ingredient (exhaust 80 ° C., solution dosage 1% o.w.f, process time 30 min): 1.41 Log
- Log reduction of antimicrobial performance of each active ingredient (exhaust 80 ° C., solution dosage 1% o.w.f, process time 40 min): 1.84 Log
- Log reduction of antimicrobial performance of each active ingredient (exhaust 80 ° C., solution dosage 1% o.w.f, process time 50 min): 2.38 Log
- Log reduction of antimicrobial performance of each active ingredient (exhaust 80 ° C., solution dosage 1% o.w.f, process time 60 min): 2.56 Log
- Log reduction of antimicrobial performance of each active ingredient (exhaust 80 ° C., solution dosage 1% o.w.f, process time 70 min): 2.58 Log
- Log reduction of antimicrobial performance of each active ingredient (exhaust 80 ° C., solution dosage 1% o.w.f, process time 80 min): 2.61 Log
- Log reduction of antimicrobial performance of each active ingredient (exhaust 80 ° C., solution dosage 1% o.w.f, process time 90 min): 2.62 Log
- Performance Test-Log reduction of antimicrobial performance (curing 120° C.): 0.05 Log
- Performance Test-Log reduction of antimicrobial performance (curing 140° C.): 0.17 Log
- Performance Test-Log reduction of antimicrobial performance (curing 150° C.): 0.27 Log
- Performance Test-Log reduction of antimicrobial performance (curing 160° C.): 0.57 Log
